Measured values as given in patent publication US9649319B2, “Process for manufacturing sterile brinzolamide ophthalmic suspension” (INDOCO REMEDIES LIMITED, priority 2012, dated 2017).

Assay: Related Substance data of Brinzolamide after sterilization (Gamma irradiation vs Dry heat sterilization)
Assay type: physicochemical
Details: for Impurities: Any individual impurity / Impurities: Related Compound B / Impurities: Related Compound C / Impurities: Related Compound D: Limit NMT 0.3%; for Impurities: Total: Limit NMT 1.0%
Experimental: The active pharmaceutical ingredient according to the present invention after Dry Heat Sterilization will essentially contain the same physico-chemical properties, its chemical purity and physical form as the starting material from which it is prepared. The degradation, especially chemical degradation caused by the present sterilization process is negligible. A table of comparison for Related Substance data of Brinzolamide after sterilization by Gamma irradiation and Dry heat sterilization is presented below.

[1] = after Gamma irradiation sterilization

- Impurities: Any individual impurity (after Dry Heat Sterilization): 0.09%
- Impurities: Related Compound B (after Dry Heat Sterilization): 0.01%
- Impurities: Related Compound C (after Dry Heat Sterilization): 0.06%
- Impurities: Related Compound D (after Dry Heat Sterilization): 0.01%
- Impurities: Total (after Dry Heat Sterilization): 0.43%
- Impurities: Any individual impurity [1]: 0.73%
- Impurities: Related Compound B [1]: 0.4%
- Impurities: Related Compound C [1]: 0.06%
- Impurities: Related Compound D [1]: 0.01%
- Impurities: Total [1]: 1.98%
SMILES: CCN[C@H]1CN(CCCOC)S(=O)(=O)c2sc(S(N)(=O)=O)cc21 [Brinzolamide, R 4-ethylamino-3,4-dihydro-2-(3-methoxy)propyl-2H-thieno[3,2-e]-1,2-thiazin-6-sulfonamide 1,1 dioxide]
